{"source": "patent US20040013710A1", "about": "“Hydrolyzable tannin extracts from plants effective at inhibiting bacterial adherence to surfaces” (priority 2003, published 2004)", "origin": "cited, not measured here", "system": "type 1 E. coli"}
{"smiles": "O=C(CO)[C@@H](O)[C@H](O)[C@H](O)CO", "note": "[fructose]", "values": [{"measurement": "inhibition of Type I adherence", "value": "inhibited"}]}
